Measurements taken from patent US10335503B2, “Compound that specifically binds to AMPA receptor” (Public University Corporation Yokohama City University, priority 2015, dated 2019).

What was measured:
Glutamate (Kainate) = assay: Receptor binding panel: Glutamate (Kainate); conditions: K-2 at 1 × 10^−7 mol/L
Dopamine D2 short = Dopamine D2 short (Homo sapiens, UniProt P14416); assay: Receptor binding panel: Dopamine D2 short; conditions: K-2 at 1 × 10^−7 mol/L
Endothelin ETA = Endothelin ETA (Homo sapiens, UniProt P25101); assay: Receptor binding panel: Endothelin ETA; conditions: K-2 at 1 × 10^−7 mol/L
Glutamate (AMPA) = assay: Receptor binding panel: Glutamate (AMPA); conditions: K-2 at 1 × 10^−7 mol/L
Adenosine A1 = Adenosine A1 (Homo sapiens, UniProt P30542); assay: Receptor binding panel: Adenosine A1; conditions: K-2 at 1 × 10^−7 mol/L
PAF = PAF (Homo sapiens, UniProt P25105); assay: Receptor binding panel: PAF; conditions: K-2 at 1 × 10^−7 mol/L
[1] = tested on: Glutamate (NMDA phencyclidine site); assay: Receptor binding panel: Glutamate (NMDA phencyclidine site); conditions: K-2 at 1 × 10^−7 mol/L
Dopamine transporter = Dopamine transporter (Homo sapiens, UniProt Q01959); assay: Receptor binding panel: Dopamine transporter; conditions: K-2 at 1 × 10^−7 mol/L
α2A-Adrenergic = α2A-Adrenergic (Homo sapiens, UniProt P08913); assay: Receptor binding panel: α2A-Adrenergic; conditions: K-2 at 1 × 10^−7 mol/L
Leukotriene B4 = assay: Receptor binding panel: Leukotriene B4; conditions: K-2 at 1 × 10^−7 mol/L
Neurokinin NK1 = Neurokinin NK1 (Homo sapiens, UniProt P25103); assay: Receptor binding panel: Neurokinin NK1; conditions: K-2 at 1 × 10^−7 mol/L
Chain of Neurokinin NK1 (P25103 whole entry): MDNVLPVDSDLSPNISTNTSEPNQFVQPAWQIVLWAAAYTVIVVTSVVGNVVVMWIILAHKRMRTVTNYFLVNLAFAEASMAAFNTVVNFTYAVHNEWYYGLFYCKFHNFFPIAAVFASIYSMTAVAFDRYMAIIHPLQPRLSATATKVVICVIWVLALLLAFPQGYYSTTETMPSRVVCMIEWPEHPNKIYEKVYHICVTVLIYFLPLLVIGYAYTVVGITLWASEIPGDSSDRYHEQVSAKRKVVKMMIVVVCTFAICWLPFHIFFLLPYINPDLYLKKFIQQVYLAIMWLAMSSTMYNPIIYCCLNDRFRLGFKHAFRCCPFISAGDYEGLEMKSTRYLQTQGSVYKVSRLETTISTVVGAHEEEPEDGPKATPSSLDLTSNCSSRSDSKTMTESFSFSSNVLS

AMPA receptor = assay: Biochemical experiment: biotinylation and quantitative Western blot of AMPA receptor after administration to living rat; format: in vivo
Experimental: In the LC-MS/MS experiment, all of the synthesized compounds were dissolved in 100% DMSO so as to have a concentration of 2.5 mM, diluted with physiological saline water immediately before administration (PEPA (1.2 pmol/g), M-1 (12 pmol/g), K-2 (12 pmol/g), M-3 (60 pmol/g), and M-2 (240 pmol/g)), and administered by the parenteral route. In the electrophysiological experiment, PEPA and K-2 were dissolved in 100% DMSO so as to have a concentration of 150 mM, diluted with ACSF as a reflux liquid immediately before the experiment so as to have a concentration of 150 μM and then used. In the biochemical experiment and the PET blocking experiment, K-2 was dissolved in 50% DMSO so as to have a concentration of 2.5 mM and 25 mM, and then administered to a rat at an amount of administration of 1 μl/weight (g) by the parenteral route so as to be 0.5 mg/kg and 5 mg/kg.
The LC-MS/MS experiment and the biochemical experiment were performed after a rat was allowed to get to sleep by inhalation of isoflurane while anesthesia was maintained using a dedicate carburetor at a concentration of 1.5%. […] In the LC-MS/MS experiment, the hippocampus region was collected in a thickness of approximately 2 mm from the extracted whole brain using Brain matrix (ASI instruments, U.S.), the tissue weight thereof was measured, and then the hippocampus region was put into a 1.5-ml conical tube. […]

GABA A (Agonist site) = assay: Receptor binding panel: GABA A (Agonist site); conditions: K-2 at 1 × 10^−7 mol/L
Na channel site 2 = assay: Receptor binding panel: Na channel site 2; conditions: K-2 at 1 × 10^−7 mol/L
Sigma σ2 = Sigma σ2 (Homo sapiens, UniProt Q5BJF2); assay: Receptor binding panel: Sigma σ2; conditions: K-2 at 1 × 10^−7 mol/L
α1B-Adrenergic = α1B-Adrenergic (Homo sapiens, UniProt P35368); assay: Receptor binding panel: α1B-Adrenergic; conditions: K-2 at 1 × 10^−7 mol/L
Chain of α1B-Adrenergic (P35368 whole entry): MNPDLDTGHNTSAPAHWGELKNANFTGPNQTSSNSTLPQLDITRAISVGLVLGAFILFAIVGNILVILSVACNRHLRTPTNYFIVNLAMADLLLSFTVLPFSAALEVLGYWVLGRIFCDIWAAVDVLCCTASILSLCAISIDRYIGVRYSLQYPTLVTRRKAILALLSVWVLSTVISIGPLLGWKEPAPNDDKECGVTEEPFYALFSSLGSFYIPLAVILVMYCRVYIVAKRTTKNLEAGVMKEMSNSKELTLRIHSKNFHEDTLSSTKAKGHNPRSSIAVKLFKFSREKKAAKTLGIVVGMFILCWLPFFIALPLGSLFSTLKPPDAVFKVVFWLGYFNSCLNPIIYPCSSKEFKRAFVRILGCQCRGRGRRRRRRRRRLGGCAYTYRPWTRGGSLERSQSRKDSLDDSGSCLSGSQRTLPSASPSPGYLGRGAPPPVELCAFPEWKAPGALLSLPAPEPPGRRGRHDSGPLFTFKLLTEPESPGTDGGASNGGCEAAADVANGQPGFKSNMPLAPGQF

Androgen = Androgen (Homo sapiens, UniProt P10275); assay: Receptor binding panel: Androgen; conditions: K-2 at 1 × 10^−7 mol/L
Chain of Androgen (P10275 whole entry): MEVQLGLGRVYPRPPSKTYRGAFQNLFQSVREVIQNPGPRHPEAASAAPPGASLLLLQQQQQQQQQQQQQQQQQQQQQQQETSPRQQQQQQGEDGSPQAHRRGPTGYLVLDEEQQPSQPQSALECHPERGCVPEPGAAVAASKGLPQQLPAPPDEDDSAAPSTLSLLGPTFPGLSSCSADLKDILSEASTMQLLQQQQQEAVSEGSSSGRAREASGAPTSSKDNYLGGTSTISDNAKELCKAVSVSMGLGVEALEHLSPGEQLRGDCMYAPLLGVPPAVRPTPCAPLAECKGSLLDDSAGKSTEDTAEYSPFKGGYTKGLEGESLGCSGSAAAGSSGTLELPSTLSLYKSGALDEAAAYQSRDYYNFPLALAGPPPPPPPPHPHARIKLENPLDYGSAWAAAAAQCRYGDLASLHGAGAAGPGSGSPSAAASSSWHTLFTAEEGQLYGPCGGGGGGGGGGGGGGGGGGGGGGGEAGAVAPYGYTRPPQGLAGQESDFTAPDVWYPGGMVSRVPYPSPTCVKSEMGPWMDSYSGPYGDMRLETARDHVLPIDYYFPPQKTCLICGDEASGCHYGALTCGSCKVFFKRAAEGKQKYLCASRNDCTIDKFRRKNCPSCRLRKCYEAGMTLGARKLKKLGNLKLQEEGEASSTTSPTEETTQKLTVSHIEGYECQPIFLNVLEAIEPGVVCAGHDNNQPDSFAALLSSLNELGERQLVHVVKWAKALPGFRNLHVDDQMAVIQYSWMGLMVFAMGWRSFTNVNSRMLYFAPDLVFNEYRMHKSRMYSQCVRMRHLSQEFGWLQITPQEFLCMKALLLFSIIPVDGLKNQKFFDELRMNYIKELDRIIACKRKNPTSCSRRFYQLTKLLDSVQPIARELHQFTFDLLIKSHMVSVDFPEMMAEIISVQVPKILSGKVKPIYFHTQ

Muscarinic M3 = Muscarinic M3 (Homo sapiens, UniProt P20309); assay: Receptor binding panel: Muscarinic M3; conditions: K-2 at 1 × 10^−7 mol/L
Muscarinic M1 = Muscarinic M1 (Homo sapiens, UniProt P11229); assay: Receptor binding panel: Muscarinic M1; conditions: K-2 at 1 × 10^−7 mol/L
Histamine H1 = Histamine H1 (Homo sapiens, UniProt P35367); assay: Receptor binding panel: Histamine H1; conditions: K-2 at 1 × 10^−7 mol/L
Chain of Histamine H1 (P35367 whole entry): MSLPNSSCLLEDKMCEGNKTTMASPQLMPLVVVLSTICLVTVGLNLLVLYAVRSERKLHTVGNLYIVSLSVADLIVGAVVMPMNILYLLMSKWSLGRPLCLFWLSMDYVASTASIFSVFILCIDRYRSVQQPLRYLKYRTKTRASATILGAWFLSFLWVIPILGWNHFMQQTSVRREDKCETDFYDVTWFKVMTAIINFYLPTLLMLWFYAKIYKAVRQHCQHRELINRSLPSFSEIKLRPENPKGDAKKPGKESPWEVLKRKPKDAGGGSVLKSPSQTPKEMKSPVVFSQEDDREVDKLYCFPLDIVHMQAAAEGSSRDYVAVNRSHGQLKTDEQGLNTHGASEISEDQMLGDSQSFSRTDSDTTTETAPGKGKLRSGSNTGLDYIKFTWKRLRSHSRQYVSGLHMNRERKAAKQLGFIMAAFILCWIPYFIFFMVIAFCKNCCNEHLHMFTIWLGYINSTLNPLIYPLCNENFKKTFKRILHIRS

[2] = tested on: Glutamate (NMDA agonist site); assay: Receptor binding panel: Glutamate (NMDA agonist site); conditions: K-2 at 1 × 10^−7 mol/L
Ca channel (Type N) = Ca channel (Type N) (Homo sapiens, UniProt Q00975); assay: Receptor binding panel: Ca channel (Type N); conditions: K-2 at 1 × 10^−7 mol/L
Chain of Ca channel (Type N) (Q00975 whole entry): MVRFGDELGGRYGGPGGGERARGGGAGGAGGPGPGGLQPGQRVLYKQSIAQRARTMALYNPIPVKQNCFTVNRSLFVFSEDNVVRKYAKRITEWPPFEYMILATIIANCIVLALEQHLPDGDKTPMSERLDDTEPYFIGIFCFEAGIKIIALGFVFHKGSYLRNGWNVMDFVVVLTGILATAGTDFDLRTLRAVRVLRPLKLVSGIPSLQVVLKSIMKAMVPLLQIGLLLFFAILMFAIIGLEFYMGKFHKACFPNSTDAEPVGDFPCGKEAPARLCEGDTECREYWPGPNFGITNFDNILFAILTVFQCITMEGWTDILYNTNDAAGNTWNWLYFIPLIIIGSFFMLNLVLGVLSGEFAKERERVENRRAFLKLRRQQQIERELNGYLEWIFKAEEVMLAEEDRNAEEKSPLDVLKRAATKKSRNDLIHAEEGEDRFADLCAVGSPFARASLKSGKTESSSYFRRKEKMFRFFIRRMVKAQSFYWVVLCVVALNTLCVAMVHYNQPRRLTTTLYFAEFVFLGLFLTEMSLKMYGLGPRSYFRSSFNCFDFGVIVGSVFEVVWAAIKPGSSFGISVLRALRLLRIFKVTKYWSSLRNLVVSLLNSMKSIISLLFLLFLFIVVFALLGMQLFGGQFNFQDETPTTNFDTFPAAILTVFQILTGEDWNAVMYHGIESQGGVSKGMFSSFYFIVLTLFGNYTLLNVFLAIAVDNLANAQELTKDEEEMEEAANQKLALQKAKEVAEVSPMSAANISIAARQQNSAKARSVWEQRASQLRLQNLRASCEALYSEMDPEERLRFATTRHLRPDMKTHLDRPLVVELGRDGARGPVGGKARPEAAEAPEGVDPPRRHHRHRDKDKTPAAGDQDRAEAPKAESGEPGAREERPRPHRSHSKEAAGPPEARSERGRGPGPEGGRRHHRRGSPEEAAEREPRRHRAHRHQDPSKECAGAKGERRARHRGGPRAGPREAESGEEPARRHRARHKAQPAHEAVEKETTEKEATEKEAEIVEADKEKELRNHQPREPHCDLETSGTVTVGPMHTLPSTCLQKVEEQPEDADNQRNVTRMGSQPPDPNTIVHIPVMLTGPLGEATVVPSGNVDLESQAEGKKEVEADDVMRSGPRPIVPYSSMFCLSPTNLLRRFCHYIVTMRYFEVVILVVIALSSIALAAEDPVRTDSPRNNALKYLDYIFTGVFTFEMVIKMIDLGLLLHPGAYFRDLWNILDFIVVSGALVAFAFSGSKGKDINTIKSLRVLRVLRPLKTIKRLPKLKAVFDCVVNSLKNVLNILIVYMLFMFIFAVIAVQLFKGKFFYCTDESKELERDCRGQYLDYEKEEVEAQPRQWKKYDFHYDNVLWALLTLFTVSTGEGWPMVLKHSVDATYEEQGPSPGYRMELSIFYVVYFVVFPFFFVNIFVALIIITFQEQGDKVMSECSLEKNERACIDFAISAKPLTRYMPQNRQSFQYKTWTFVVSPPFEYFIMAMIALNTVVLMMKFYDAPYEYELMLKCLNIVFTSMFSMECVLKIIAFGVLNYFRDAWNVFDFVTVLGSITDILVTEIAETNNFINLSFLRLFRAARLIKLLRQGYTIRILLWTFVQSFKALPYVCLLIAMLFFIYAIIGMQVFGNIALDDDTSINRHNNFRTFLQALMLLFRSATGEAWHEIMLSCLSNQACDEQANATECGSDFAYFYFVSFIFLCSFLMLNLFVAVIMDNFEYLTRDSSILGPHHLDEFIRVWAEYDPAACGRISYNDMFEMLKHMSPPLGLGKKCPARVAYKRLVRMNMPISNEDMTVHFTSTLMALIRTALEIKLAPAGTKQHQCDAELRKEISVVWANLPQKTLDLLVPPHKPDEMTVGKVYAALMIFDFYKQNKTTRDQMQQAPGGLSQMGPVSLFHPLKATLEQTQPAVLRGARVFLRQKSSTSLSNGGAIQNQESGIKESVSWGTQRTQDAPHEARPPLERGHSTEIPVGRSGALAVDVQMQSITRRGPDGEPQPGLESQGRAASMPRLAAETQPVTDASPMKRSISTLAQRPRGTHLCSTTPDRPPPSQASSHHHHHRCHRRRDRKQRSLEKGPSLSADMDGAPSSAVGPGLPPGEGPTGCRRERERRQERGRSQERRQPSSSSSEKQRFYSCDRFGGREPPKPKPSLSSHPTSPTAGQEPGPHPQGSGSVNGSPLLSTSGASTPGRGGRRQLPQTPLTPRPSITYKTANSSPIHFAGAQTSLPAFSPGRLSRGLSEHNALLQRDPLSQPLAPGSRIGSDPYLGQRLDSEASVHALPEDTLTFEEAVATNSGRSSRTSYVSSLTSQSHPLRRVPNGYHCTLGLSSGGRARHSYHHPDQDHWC

Chain of Dopamine D2 short (P14416 1-414 isoform P14416-2): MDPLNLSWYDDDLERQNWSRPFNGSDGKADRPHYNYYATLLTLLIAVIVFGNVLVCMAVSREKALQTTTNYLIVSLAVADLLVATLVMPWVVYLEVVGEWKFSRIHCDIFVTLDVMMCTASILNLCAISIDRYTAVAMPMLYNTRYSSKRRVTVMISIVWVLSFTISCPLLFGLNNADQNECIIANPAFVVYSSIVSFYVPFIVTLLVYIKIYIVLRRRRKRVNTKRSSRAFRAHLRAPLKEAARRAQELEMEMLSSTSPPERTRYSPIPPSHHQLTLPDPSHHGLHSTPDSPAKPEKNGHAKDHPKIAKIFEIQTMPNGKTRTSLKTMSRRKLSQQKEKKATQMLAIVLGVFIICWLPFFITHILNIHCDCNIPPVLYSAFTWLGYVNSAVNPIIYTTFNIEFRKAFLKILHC

For `CN(CCSc1cc(F)c(OCC(N)=O)c(F)c1)S(=O)(=O)c1ccccc1` [K-2, {4-[2-(benzenesulfonyl-methyl-amino)-ethylsulfanil]-2,6-difluoro-phenoxy}-acetamide], the “Inhibition (%)” value (Glutamate (Kainate)) was 1.68%, the inhibition at 0.1 µM (Dopamine D2 short) was 5.33% and the inhibition at 0.1 µM (Endothelin ETA) was 1.81%. The “Inhibition (%)” value (Glutamate (AMPA)) was 1.74%, the inhibition at 0.1 µM (Adenosine A1) was 5.29% and the inhibition at 0.1 µM (PAF) was 0%. The “Inhibition (%)” value [1] was 5.02%, the inhibition at 0.1 µM (Dopamine transporter) was 0.29% and the inhibition at 0.1 µM (α2A-Adrenergic) was 8.77%. For the same molecule, the “Inhibition (%)” value (Leukotriene B4) was 0.00%, the inhibition at 0.1 µM (Neurokinin NK1) was 0% and the “AMPA receptor presented on the surface of the cell membrane” value (AMPA receptor; 5 mg/kg of K-2, hippocampus, vs 50% DMSO) was 136%±14. For the same molecule, the “change in the total amount of the AMPA receptors” value (AMPA receptor; 5 mg/kg of K-2, same animal) was “not recognized”, the “Inhibition (%)” value (GABA A (Agonist site)) was 0.38% and the “Inhibition (%)” value (Na channel site 2) was 11.15%. The inhibition at 0.1 µM (Sigma σ2) was 4.07%, the inhibition at 0.1 µM (α1B-Adrenergic) was 0% and the inhibition at 0.1 µM (Androgen) was 0.57%. The inhibition at 0.1 µM (Muscarinic M3) was 5.99%, the inhibition at 0.1 µM (Muscarinic M1) was 2.24% and the inhibition at 0.1 µM (Histamine H1) was 6.53%. For the same molecule, the “Inhibition (%)” value [2] was 0.57% and the inhibition at 0.1 µM (Ca channel (Type N)) was 0.31%.
